Measurements reported in patent publication US6855710B2, “Substituted indolines with an inhibitory effect on various kinases and complexes of CDKs” (Boehringer Ingelheim Pharma KG, priority 1998, dated 2005).

Row | SMILES | melting point
1 | O=C1Nc2ccccc2/C1=C(/Nc1ccc(NS(=O)(=O)CCN2CCOCC2)cc1)c1ccccc1 [Example 381, (Z)-3-{1-[4-(2-morpholinoethylsulphonylamino)-phenylamino]-1-phenyl-methylidene}-2-indolinone] | 240 to 242 °C
2 | CN(CCCOc1ccc(N/C(=C2\C(=O)Nc3ccccc32)c2ccccc2)cc1)Cc1ccccc1 [Example 288, (Z)-3-{1-[4-(3-(N-benzyl-N-methyl-amino)-propyloxy)-phenylamino]-1-phenyl-methylidene}-2-indolinone] | 187 to 189 °C
3 | CN(C)C(=O)CN(c1ccc(N/C(=C2\C(=O)Nc3ccc([N+](=O)[O-])cc32)c2ccccc2)cc1)S(C)(=O)=O [Example 201, (Z)-3-{1-[4-(N-dimethylaminocarbonylmethyl-N-methylsulphonyl-amino)-phenylamino]-1-phenyl-methylidene}-5-nitro-2-indolinone] | 277 to 280 °C
4 | CN(C)CCCN(c1cccc(N/C(=C2\C(=O)Nc3ccccc32)c2ccc(CN)cc2)c1)S(C)(=O)=O [Example 424, (Z)-3-{1-[3-(N-(3-dimethylaminopropyl)-N-methylsulphonyl-amino)-phenylamino]-1-(4-aminomethyl-phenyl)-methylidene}-2-indolinone] | 197 °C
5 | CN(C)CC(=O)NCc1cccc(N/C(=C2\C(=O)Nc3ccc([N+](=O)[O-])cc32)c2ccccc2)c1 [Example 106, (Z)-3-[1-(3-dimethylaminomethylcarbonylaminomethyl-phenylamino)-1-phenyl-methylidene]-5-nitro-2-indolinone] | 171 to 173 °C
6 | CC(=O)NCc1ccc(/C(Nc2ccc(CNC(=O)OC(C)(C)C)cc2)=C2/C(=O)Nc3ccc([N+](=O)[O-])cc32)cc1 [Example 150, (Z)-3-[1-(4-tert.butoxycarbonylaminomethyl-phenylamino)-1-(4-acetylaminomethyl-phenyl)-methylidene]-5-nitro-2-indolinone] | 234 °C (dec.)
7 | CN(C(=C1C(=O)Nc2ccccc21)c1ccccc1)c1ccc(C#N)cc1 [Example 61, 3-{1-[N-(4-cyanophenyl)-N-methyl-amino]-1-phenyl-methylidene}-2-indolinone] | 239 °C
8 | CCN(CC)C(=O)c1ccc(N/C(=C2\C(=O)Nc3ccccc32)c2ccccc2)cc1 | 202 to 204 °C
9 | COC(=O)c1ccccc1N/C(=C1\C(=O)Nc2ccccc21)c1ccccc1 [Example 7, (Z)-3-[1-(2-methoxycarbonyl-phenylamino)-1-phenyl-methylidene]-2-indolinone] | 241 to 244 °C
10 | CNC(=O)CN(c1cccc(N/C(=C2\C(=O)Nc3ccccc32)c2ccccc2)c1)S(C)(=O)=O [Example 320, (Z)-3-{1-[3-(N-methylaminocarbonylmethyl-N-methylsulphonyl-amino)-phenylamino]-1-phenyl-methylidene}-2-indolinone] | 163 °C
11 | O=CN(CCN1CCOCC1)c1ccc(N/C(=C2\C(=O)Nc3ccc([N+](=O)[O-])cc32)c2ccccc2)cc1 [Example 333, (Z)-3-{1-[4-(N-(2-morpholinoethyl)-N-formyl-amino)-phenylamino]-1-phenyl-methylidene}-5-nitro-2-indolinone] | 207 °C
12 | CCOC(=O)CN(C)S(=O)(=O)c1ccc(N/C(=C2\C(=O)Nc3ccccc32)c2ccccc2)cc1 [Example 408, (Z)-3-{1-[4-(N-ethoxycarbonylmethyl-N-methyl-aminosulphonyl)-phenylamino]-1-phenyl-methylidene}-2-indolinone] | 178 to 180 °C
13 | CN(C)CCCN(C)S(=O)(=O)c1ccc(N/C(=C2\C(=O)Nc3ccc([N+](=O)[O-])cc32)c2ccccc2)cc1 [Example 404, (Z)-3-{1-[4-(N-(3-dimethylaminopropyl)-N-methyl-aminosulphonyl)-phenylamino]-1-phenyl-methylidene}-5-nitro-2-indolinone] | 269 to 270 °C (dec.)
14 | CCCS(=O)(=O)N(CCN(C)C)c1ccc(N/C(=C2\C(=O)Nc3ccccc32)c2ccccc2)cc1 [Example 311, (Z)-3-{1-[4-(N-(2-dimethylaminoethyl)-N-propylsulphonyl-amino)-phenylamino]-1-phenyl-methylidene}-2-indolinone] | 245 °C
15 | CN(C(=O)CN1CCCC1)c1ccc(N/C(=C2\C(=O)Nc3ccc([N+](=O)[O-])cc32)c2ccccc2)cc1 [Example 364, (Z)-3-{1-[4-(N-(pyrrolidin-1-ylmethylcarbonyl)-N-methyl-amino)-phenylamino]-1-phenyl-methylidene}-5-nitro-2-indolinone] | 246 to 247 °C
16 | O=CNc1ccc(N/C(=C2\C(=O)Nc3ccccc32)c2ccccc2)cc1 [Example 29, (Z)-3-[1-(4-formylamino-phenylamino)-1-phenyl-methylidene]-2-indolinone] | 268 to 269 °C
17 | NCc1ccc(N/C(=C2\C(=O)Nc3ccccc32)c2ccccc2)cc1 [Example 55, (Z)-3-[1-(4-aminomethyl-phenylamino)-1-phenyl-methylidene]-2-indolinone] | 236 to 237 °C
18 | COCc1cccc(N/C(=C2\C(=O)Nc3ccccc32)c2ccccc2)c1 [Example 5, (Z)-3-[1-(3-methoxymethyl-phenylamino)-1-phenyl-methylidene]-2-indolinone] | 182 to 184 °C

Row | SMILES | melting point
19 | CC(C)(C)OC(=O)Nc1ccc(N/C(=C2\C(=O)Nc3ccc([N+](=O)[O-])cc32)c2ccccc2)cc1 [Example 90, (Z)-3-[1-(4-tert.butoxycarbonylamino-phenylamino)-1-phenyl-methylidene]-5-nitro-2-indolinone] | 235 to 237 °C (dec.)
20 | CN1CCN(Cc2cccc(N/C(=C3\C(=O)Nc4ccc([N+](=O)[O-])cc43)c3ccccc3)c2)CC1 [Example 110, (Z)-3-{1-[3-(4-methylpiperazinomethyl)-phenylamino]-1-phenyl-methylidene}-5-nitro-2-indolinone] | 256 to 258 °C
21 | CN(C)C(=O)CN(c1ccc(N/C(=C2\C(=O)Nc3ccccc32)c2ccccc2)cc1)S(=O)(=O)c1ccccc1 [Example 205, (Z)-3-{1-[4-(N-dimethylaminocarbonylmethyl-N-phenylsulphonyl-amino)-phenylamino]-1-phenyl-methylidene}-2-indolinone] | 255 to 258 °C
22 | CNCc1ccc(N/C(=C2\C(=O)Nc3ccc([N+](=O)[O-])cc32)c2ccccc2)cc1.Cl | 351 °C
23 | CNC(=O)CN(C(C)=O)c1ccc(N/C(=C2\C(=O)Nc3ccccc32)c2ccccc2)cc1 [Example 354, (Z)-3-{1-[4-(N-methylaminocarbonylmethyl-N-acetyl-amino)-phenylamino]-1-phenyl-methylidene}-2-indolinone] | 270 °C (dec.)
24 | CCOC(=O)CN(C)S(=O)(=O)c1ccc(N/C(=C2\C(=O)Nc3ccc([N+](=O)[O-])cc32)c2ccccc2)cc1 [Example 413, (Z)-3-{1-[4-(N-ethoxycarbonylmethyl-N-methyl-aminosulphonyl)-phenylamino]-1-phenyl-methylidene}-5-nitro-2-indolinone] | 206 to 207 °C
25 | CS(=O)(=O)N(CC(N)=O)c1cccc(N/C(=C2\C(=O)Nc3ccccc32)c2ccccc2)c1 [Example 319, (Z)-3-{1-[3-(N-aminocarbonylmethyl-N-methylsulphonyl-amino)-phenylamino]-1-phenyl-methylidene}-2-indolinone] | 227 to 230 °C
26 | Cc1ccc(/C(Nc2ccc(CN(C)C)cc2)=C2/C(=O)Nc3ccccc32)cc1 [Example 211, (Z)-3-[1-(4-dimethylaminomethyl-phenylamino)-1-(p-tolyl)-methylidene]-2-indolinone] | 208 to 209 °C
27 | CN(C)CCN(C(=O)c1ccccc1)c1ccc(N/C(=C2\C(=O)Nc3ccccc32)c2ccccc2)cc1 [Example 452, (Z)-3-[1-(4-(N-(2-dimethylaminoethyl)-N-benzoyl-amino)-phenylamino)-1-phenyl-methylidene]-2-indolinone] | 272 to 274 °C
28 | O=C1Nc2ccc([N+](=O)[O-])cc2/C1=C(/Nc1ccc(CN2CCCCC2)cc1)c1ccc(Cn2ccnc2)cc1 [Example 439, (Z)-3-{1-[4-piperidinomethyl-phenylamino]-1-[4-(imidazol-1-yl-methyl)-phenyl]-methylidene}-5-nitro-2-indolinone] | 226 to 228 °C
29 | COC(=O)c1ccc(/C(Nc2ccc(CN3CCCCC3)cc2)=C2/C(=O)Nc3ccc([N+](=O)[O-])cc32)cc1 [Example 444, (Z)-3-[1-(4-piperidinomethyl-phenylamino)-1-(4-methoxycarbonyl-phenyl)-methylidene]-5-nitro-2-indolinone] | 178 to 183 °C
30 | CCOC(=O)C1CCN(CCc2ccc(N/C(=C3\C(=O)Nc4ccc([N+](=O)[O-])cc43)c3ccccc3)cc2)CC1 [Example 262, (Z)-3-{1-[4-(2-(4-ethoxycarbonyl-piperidino)-ethyl)-phenylamino]-1-phenyl-methylidene}-5-nitro-2-indolinone] | 208 to 213 °C
31 | CN(C)CC(=O)N(C)c1ccc(N/C(=C2\C(=O)Nc3ccccc32)c2ccc(CN)cc2)cc1 [Example 430, (Z)-3-{1-[4-(N-dimethylaminomethylcarbonyl-N-methyl-amino)-phenylamino]-1-(4-aminomethyl-phenyl)-methylidene}-2-indolinone] | 188 to 190 °C
32 | CCS(=O)(=O)N(CC(N)=O)c1ccc(N/C(=C2\C(=O)Nc3ccccc32)c2ccccc2)cc1 [Example 299, (Z)-3-{1-[4-(N-aminocarbonylmethyl-N-ethylsulphonyl-amino)-phenylamino]-1-phenyl-methylidene}-2-indolinone] | 259 °C
33 | CN(Cc1ccc(N/C(=C2\C(=O)Nc3ccc([N+](=O)[O-])cc32)c2ccccc2)cc1)C1CCCC1 [Example 277, (Z)-3-{1-[4-(N-cyclopentyl-N-methyl-aminomethyl)-phenylamino]-1-phenyl-methylidene}-5-nitro-2-indolinone] | 228 °C
34 | CN(C(=O)CN1CCNCC1)c1ccc(N/C(=C2\C(=O)Nc3ccccc32)c2ccccc2)cc1.Cl.Cl | 255 to 258 °C (dec.)
35 | CS(=O)(=O)Nc1ccc(N/C(=C2\C(=O)Nc3ccccc32)c2ccccc2)cc1 [Example 185, (Z)-3-[1-(4-methylsulphonylamino-phenylamino)-1-phenyl-methylidene]-2-indolinone] | 299 to 301 °C
